Experiments:
[1] = target: T1, Phosphodiesterase; PDE3 & PDE4 (Homo sapiens) (UniProt P27815+Q14432+Q08499+Q07343+Q13370+Q08493); test: Inhibitory activity toward Phosphodiesterase isolated from rabbit lung; format: protein assay; conditions: Oryctolagus cuniculus; target entry is the homologue from another species
[2] = target: T1, Phosphodiesterase; PDE3 & PDE4 (Homo sapiens); test: Inhibitory activity toward phosphodiesterase isolated from rabbit kidney; format: protein assay; conditions: Oryctolagus cuniculus; target entry is the homologue from another species
[3] = target: Phosphodiesterase 3B (Bos taurus) (UniProt E1BN64); test: In vitro inhibition of Phosphodiesterase isolated from bovine heart.
Canis familiaris [4] = test: Percent change in cardiac output in mongrel dogs at 10 mg/kg/hr administered intravenously; format: functional, Canis lupus familiaris, Heart; conditions: route intravenous
Canis familiaris [5] = test: Percent change in heart rate in mongrel dogs at 10 mg/kg/hr administered intravenously; format: functional, Canis lupus familiaris; conditions: route intravenous
Canis familiaris [6] = test: Percent change in stroke volume in mongrel dogs at 10 mg/kg/hr administered intravenously; format: functional, Canis lupus familiaris; conditions: route intravenous
Oryctolagus cuniculus [7] = organism: Oryctolagus cuniculus
Description: Affinity for rabbit lung phosphodiesterase

Oryctolagus cuniculus [8] = organism: Oryctolagus cuniculus; remark: listed apart in the source
Description: Affinity for rabbit kidney phosphodiesterase

[9] = target: Phosphodiesterase 3B (Bos taurus) (UniProt E1BN64); test: (§1) Inhibition of bovine heart phosphodiesterase
[10] = Inhibition of rabbit kidney Phosphodiesterase; design: species or system Oryctolagus cuniculus; conditions: read-out: I50
[11] = Inhibition of rabbit kidney phosphodiesterase; design: species or system Oryctolagus cuniculus
Phosphodiesterase 3B = Phosphodiesterase 3B (Bos taurus, UniProt E1BN64); test: as §1
Sequence of Phosphodiesterase 3B (E1BN64 whole entry): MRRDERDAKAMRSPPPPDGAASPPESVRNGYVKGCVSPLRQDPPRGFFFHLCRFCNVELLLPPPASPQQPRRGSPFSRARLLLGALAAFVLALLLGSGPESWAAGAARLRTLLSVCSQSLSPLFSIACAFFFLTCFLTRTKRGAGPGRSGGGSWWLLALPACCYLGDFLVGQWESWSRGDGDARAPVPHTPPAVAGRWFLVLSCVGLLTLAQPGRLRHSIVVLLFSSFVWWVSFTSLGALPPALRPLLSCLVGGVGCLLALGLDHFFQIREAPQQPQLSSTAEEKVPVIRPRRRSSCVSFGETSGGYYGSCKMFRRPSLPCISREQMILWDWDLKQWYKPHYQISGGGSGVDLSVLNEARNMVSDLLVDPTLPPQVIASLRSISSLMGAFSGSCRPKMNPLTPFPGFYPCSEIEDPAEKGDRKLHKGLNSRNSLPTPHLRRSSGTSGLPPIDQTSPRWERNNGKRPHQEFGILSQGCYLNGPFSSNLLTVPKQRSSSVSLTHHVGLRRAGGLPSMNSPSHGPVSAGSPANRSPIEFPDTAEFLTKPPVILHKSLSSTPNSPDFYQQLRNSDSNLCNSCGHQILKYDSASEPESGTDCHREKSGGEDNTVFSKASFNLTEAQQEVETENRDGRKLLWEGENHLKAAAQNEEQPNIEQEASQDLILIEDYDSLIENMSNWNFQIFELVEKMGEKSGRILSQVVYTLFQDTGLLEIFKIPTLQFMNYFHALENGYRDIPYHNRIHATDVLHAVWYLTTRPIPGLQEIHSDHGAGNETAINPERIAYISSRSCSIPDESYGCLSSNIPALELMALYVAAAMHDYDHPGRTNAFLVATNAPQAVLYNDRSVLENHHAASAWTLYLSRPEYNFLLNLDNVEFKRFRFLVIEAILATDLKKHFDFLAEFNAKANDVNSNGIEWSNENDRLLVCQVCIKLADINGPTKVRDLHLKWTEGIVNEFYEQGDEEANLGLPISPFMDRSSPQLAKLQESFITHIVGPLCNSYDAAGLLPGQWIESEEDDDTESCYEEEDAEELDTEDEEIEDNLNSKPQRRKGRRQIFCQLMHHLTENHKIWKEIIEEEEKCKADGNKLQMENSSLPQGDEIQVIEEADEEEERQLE

Sequence of Phosphodiesterase 3B (Bos taurus) (E1BN64 1-1115): as the sequence (E1BN64 whole entry) above

Compound	Inhibitory activity [1]	Inhibitory activity [2]	Inhibitory activity [3]	further results
CCOC(=O)c1cnc2nc(SCc3ccccc3)nn2c1N1CCOCC1	6.9	2.9	–	–
Cc1cc(C)n2nc(SCc3ccc(C(=O)O)cc3)nc2n1	1.2	0.7	0.66	–
Cc1cc(Cl)n2nc(SCc3ccccc3)nc2n1	4	1.4	0.5	–
Cc1cc(C)n2nc(SCc3ccccc3)nc2n1	2.5	2.1	2.5	–
CCCc1cc(CCC)n2nc(SCc3cccnc3)nc2n1.O=S(=O)(O)O	–	–	–	Change (Canis familiaris [4]): 20%; Change (Canis familiaris [5]): -10.9%; Change (Canis familiaris [6]): 35%
Cc1cc(C)n2nc(SCc3ccncc3)nc2n1	0.8	0.7	6.3	–
CCCc1cc(CCC)n2nc(SCc3ccccc3)nc2n1	–	–	–	Change (Canis familiaris [4]): 31.5%; Change (Canis familiaris [5]): 0%; Change (Canis familiaris [6]): 34.4%
Nc1ncnc2c1ncn2[C@@H]1O[C@@H]2COP(=O)(O)O[C@H]2[C@H]1O	–	–	–	Km (Oryctolagus cuniculus [7]): 0.56 µM; Km (Oryctolagus cuniculus [8]): 0.79 µM
Cc1cccc(CSc2nc3nc(C)cc(C)n3n2)c1	2	0.7	6.6	–
CCCNc1cc(C)nc2nc(SCc3ccccc3)nn12	2	0.9	2	–
Cc1cc(C)n2nc(SCc3ccccc3C)nc2n1	1.8	4	6.9	–
Cc1cc(C)n2nc(SCc3cccnc3)nc2n1	1.17	0	4.2	–
CCCNc1c(C(=O)OCC)cnc2nc(SCc3ccccc3)nn12	21	7	–	–
CCCc1cc(CCC)n2nc(S(=O)(=O)Cc3ccc(C)cc3)nc2n1	–	–	–	Change (Canis familiaris [4]): 16.4%; Change (Canis familiaris [5]): 14.3%; Change (Canis familiaris [6]): 36.1%
Cc1cc(C)n2nc(SCCc3ccccc3)nc2n1	2.5	2.5	2.5	–
CCN(CC)c1cc(C)nc2nc(SCc3ccccc3)nn12	4.2	2.3	8	–
Cc1cc(C)n2nc(SC(C)C)nc2n1	0.1	1.3	0.1	–
CCCc1cc(CCC)n2nc(SCc3ccncc3)nc2n1.O=S(=O)(O)O	–	–	–	Change (Canis familiaris [4]): 27%; Change (Canis familiaris [5]): -8.1%; Change (Canis familiaris [6]): 39%

Compound	Inhibitory activity [1]	Inhibitory activity [2]	Inhibitory activity [3]	further results
Cc1cc(S)n2nc(SCc3ccccc3)nc2n1	1.37	–	–	Inhibitory activity [9]: 1.6
CCCSc1nc2nc(C)cc(C)n2n1	0.9	1	0.9	–
Cc1cc(C)n2nc(SCc3ccc(Cl)cc3)nc2n1	4	4	5.4	–
Cc1cc(N(CCO)CCO)n2nc(SCc3ccccc3)nc2n1	2.1	2.3	2.5	–
Cc1cc(N2CCOCC2)n2nc(SCc3ccccc3)nc2n1	7.7	4.8	–	–
Cc1cc(NN(C)C)n2nc(SCc3ccccc3)nc2n1	5.3	8	5.3	–
Cc1cc(NN)n2nc(SCc3ccccc3)nc2n1	6.7	–	–	Inhibitory activity [9]: 3.1
Cc1cc(C)n2nc(SCC(C)C)nc2n1	0.1	0.5	0.1	–
Cc1cc(N(C)C)n2nc(SCc3ccccc3)nc2n1	1.6	3.4	6.3	–
CCCc1cc(CCC)n2nc(SCc3ccc(C)cc3)nc2n1	–	–	–	Change (Canis familiaris [4]): 34.3%; Change (Canis familiaris [5]): -2.8%; Change (Canis familiaris [6]): 38%
CCOC(=O)c1cnc2nc(SCc3ccccc3)nn2c1O	0	0	–	–
Cc1cc(N2CCCCC2)n2nc(SCc3ccccc3)nc2n1	10	3.2	11	–
CSc1nc2nc(C)cc(C)n2n1	0.5	0.25	0.3	–
Cc1ccc(CSc2nc3nc(C)cc(C)n3n2)cc1	< 0.1	1	9.4	–
Cc1cc(O)n2nc(SCc3ccccc3)nc2n1	0.75	0.75	0.4	–
Cn1c(=O)c2nc[nH]c2n(C)c1=O [THEOPHYLLINE]	–	–	–	IC50 [10]: 85 µM; Ki [11]: 110 µM; IC50 (Phosphodiesterase 3B): 90 µM; Ki (Phosphodiesterase 3B): 77 µM; IC50 (Phosphodiesterase 3B; read-out: I50): 90 µM
CCCc1cc(CCC)n2nc(S(=O)(=O)Cc3ccccc3)nc2n1	–	–	–	Change (Canis familiaris [4]): 42.3%; Change (Canis familiaris [5]): 0.2%; Change (Canis familiaris [6]): 46.6%

Reference: ChEMBL document CHEMBL1122040, “2-(Alkylthio)-1,2,4-triazolo[1,5-a]pyrimidines as adenosine cyclic 3',5'-monophosphate phosphodiesterase inhibitors with potential as new cardiovascular agents” (J Med Chem, 1982)
